We go through 28 compounds from patent US9708316B2 (BRISTOL-MYERS SQUIBB COMPANY, priority 2014, dated 2017).

The structures appear in SMILES notation.

The target of one assay is T1, HIS-TGFβR1 T204D (Homo sapiens, UniProt P36897, T204D).
T1 sequence (P36897 34-503 T204D): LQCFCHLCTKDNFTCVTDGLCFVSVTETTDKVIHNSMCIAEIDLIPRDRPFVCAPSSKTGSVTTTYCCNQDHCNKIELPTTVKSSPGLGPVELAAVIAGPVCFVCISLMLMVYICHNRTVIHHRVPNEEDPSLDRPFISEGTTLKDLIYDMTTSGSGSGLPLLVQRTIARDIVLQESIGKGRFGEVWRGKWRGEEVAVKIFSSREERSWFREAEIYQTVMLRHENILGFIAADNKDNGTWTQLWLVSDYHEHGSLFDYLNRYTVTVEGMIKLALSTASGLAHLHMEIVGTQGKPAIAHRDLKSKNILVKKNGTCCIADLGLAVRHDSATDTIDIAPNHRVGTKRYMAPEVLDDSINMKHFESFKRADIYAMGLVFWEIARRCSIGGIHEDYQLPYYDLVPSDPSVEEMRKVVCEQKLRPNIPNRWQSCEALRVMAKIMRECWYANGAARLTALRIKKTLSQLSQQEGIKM
Description: HTRF probe-displacement assay, HIS-TGFβR1 T204D. Type of assay: binding. The following applies: read-out: TGFβR1 (μM) IC50. (In general: In TR-FRET formats the signal depends on donor and acceptor labels being close together.)

In a further assay the target is HIS-TGFβR2 WT (Homo sapiens, UniProt P37173). Description: HTRF probe-displacement assay, HIS-TGFβR2 WT. The class given is binding.
HIS-TGFβR2 WT, sequence (P37173 23-567): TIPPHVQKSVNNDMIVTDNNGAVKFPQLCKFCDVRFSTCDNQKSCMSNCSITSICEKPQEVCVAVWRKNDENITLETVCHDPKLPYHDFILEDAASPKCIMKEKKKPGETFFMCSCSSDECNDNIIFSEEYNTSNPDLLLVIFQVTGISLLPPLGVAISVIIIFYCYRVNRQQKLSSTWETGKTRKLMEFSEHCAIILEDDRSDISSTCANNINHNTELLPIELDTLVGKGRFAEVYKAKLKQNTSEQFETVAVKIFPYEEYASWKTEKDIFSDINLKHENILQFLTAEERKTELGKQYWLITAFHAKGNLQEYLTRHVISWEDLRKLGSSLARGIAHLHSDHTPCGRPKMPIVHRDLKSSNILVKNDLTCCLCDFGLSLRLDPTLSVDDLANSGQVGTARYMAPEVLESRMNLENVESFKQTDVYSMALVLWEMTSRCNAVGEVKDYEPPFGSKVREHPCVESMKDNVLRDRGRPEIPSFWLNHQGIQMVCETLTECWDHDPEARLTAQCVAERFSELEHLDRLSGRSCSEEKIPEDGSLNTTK

As to `COC(=O)Nc1cc(-c2[nH]c3cc(OC)cnc3c2-c2ccc(OC)cn2)ccn1` [Example 124, Methyl N-{4-[6-methoxy-3-(5-methoxypyridin-2-yl)-1H-pyrrolo[3,2-b]pyridin-2-yl]pyridin-2-yl}carbamate], the values for the IC50 on HIS-TGFβR1 T204D and at HIS-TGFβR2 WT were 0.001 µM and 12.8 µM, respectively.
Consider `COc1ccc(-c2c(-c3ccnc(NC(=O)CN4CCN(CCO)CC4)c3)[nH]c3cc(Cl)cnc23)nc1` [Example 252, N-(4-(6-Chloro-3-(5-methoxypyridin-2-yl)-1H-pyrrolo[3,2-b]pyridin-2-yl)pyridin-2-yl)-2-(4-(2-hydroxyethyl)piperazin-1-yl)acetamide], for which the IC50 (as a rule, the midpoint of a concentration-inhibition curve) is 0.001 µM on HIS-TGFβR1 T204D and more than 15 µM at HIS-TGFβR2 WT.
With `COCCOc1cnc2c(-c3ccc(OC)cn3)c(-c3ccnc(NC(C)=O)c3)[nH]c2c1` [Example 95, N-(4-(6-(2-Methoxyethoxy)-3-(5-methoxypyridin-2-yl)-1H-pyrrolo[3,2-b]pyridin-2-yl)pyridin-2-yl)acetamide], the figures for the IC50 at HIS-TGFβR1 T204D and on HIS-TGFβR2 WT were 0.002 µM and more than 15 µM, respectively.
`CC(=O)Nc1cc(-c2[nH]c3c(C(C)O)ccnc3c2-c2nc(C(F)(F)F)cs2)ccn1` (centres unmarked) [Example 231, N-(4-(7-(1-Hydroxyethyl)-3-(4-(trifluoromethyl)thiazol-2-yl)-1H-pyrrolo[3,2-b]pyridin-2-yl)pyridin-2-yl)acetamide]: the results for the IC50 on HIS-TGFβR1 T204D and on HIS-TGFβR2 WT were 0.001 µM and 9.11 µM, respectively.
Take `COCCCc1ccnc2c(-c3cccc(C(F)F)n3)c(-c3ccnc(NC(C)=O)c3)[nH]c12` [Example 131, N-(4-{3-[6-(Difluoromethyl)pyridin-2-yl]-7-(3-methoxypropyl)-1H-pyrrolo[3,2-b]pyridin-2-yl}pyridin-2-yl)acetamide]: the IC50 on HIS-TGFβR1 T204D is 0.001 µM; on HIS-TGFβR2 WT, 3.84 µM.
For `CNC(=O)c1ccnc2c(-c3ccc(OC)nc3)c(-c3ccnc(NC(C)=O)c3)[nH]c12` [Example 57, 2-(2-Acetamidopyridin-4-yl)-3-(6-methoxypyridin-3-yl)-N-methyl-1H-pyrrolo[3,2-b]pyridine-7-carboxamide], the IC50 was found to be 0.019 µM at HIS-TGFβR1 T204D and 0.11 µM at HIS-TGFβR2 WT.
In the same order, the values of `CC(=O)Nc1cc(-c2[nH]c3c(C)ccnc3c2-c2nc(C(F)F)cs2)ccn1` [Example 220, N-(4-(3-(4-(Difluoromethyl)thiazol-2-yl)-7-methyl-1H-pyrrolo[3,2-b]pyridin-2-yl)pyridin-2-yl)acetamide] are 0.0005 µM and 1.38 µM.
In the case of `CC(=O)Nc1cc(-c2[nH]c3cc(Cl)cnc3c2-c2ncc(Cl)s2)ccn1` [Example 168, N-(4-(6-Chloro-3-(5-chlorothiazol-2-yl)-1H-pyrrolo[3,2-b]pyridin-2-yl)pyridin-2-yl)acetamide], the IC50 at HIS-TGFβR1 T204D was 0.0138 µM; at HIS-TGFβR2 WT, 1.19 µM.
For the compound `CC(=O)Nc1cc(-c2[nH]c3c(C(O)C(C)C)ccnc3c2-c2cccc(C(F)F)n2)ccn1` (centres unmarked) [Example 144, N-(4-{3-[6-(Difluoromethyl)pyridin-2-yl]-7-(1-hydroxy-2-methylpropyl)-1H-pyrrolo[3,2-b]pyridin-2-yl}pyridin-2-yl)acetamide], the IC50 on HIS-TGFβR1 T204D stood at 0.001 µM; on HIS-TGFβR2 WT, 0.361 µM.
For `CC(=O)Nc1cc(-c2[nH]c3c(C4CCCCO4)ccnc3c2-c2cccc(C(F)F)n2)ccn1` (centres unmarked) [Example 134, N-(4-{3-[6-(Difluoromethyl)pyridin-2-yl]-7-(oxan-2-yl)-1H-pyrrolo[3,2-b]pyridin-2-yl}pyridin-2-yl)acetamide], the IC50 amounted to 0.004 µM at HIS-TGFβR1 T204D and 8.66 µM at HIS-TGFβR2 WT.
With `COc1cnc2c(-c3cccc(C(F)F)n3)c(-c3ccnc(NC(=O)CN4CCN(CCO)CC4)c3)[nH]c2c1` [Example 123, N-(4-{3-[6-(Difluoromethyl)pyridin-2-yl]-6-methoxy-1H-pyrrolo[3,2-b]pyridin-2-yl}pyridin-2-yl)-2-[4-(2-hydroxyethyl)piperazin-1-yl]acetamide], the IC50 was less than 0.001 µM at HIS-TGFβR1 T204D and more than 15 µM at HIS-TGFβR2 WT.
Take `COC(=O)Nc1cc(-c2[nH]c3cc(Cl)cnc3c2-c2ccc(OC)cn2)ccn1` [Example 87, Methyl N-{4-[6-chloro-3-(5-methoxypyridin-2-yl)-1H-pyrrolo[3,2-b]pyridin-2-yl]pyridin-2-yl}carbamate]: the IC50 on HIS-TGFβR1 T204D was 0.002 µM; at HIS-TGFβR2 WT, more than 15 µM.
With `CC(=O)Nc1cc(-c2[nH]c3cccnc3c2-c2ccc(C(F)(F)F)nc2)ccn1` [Example 13, N-(4-{3-[6-(Trifluoromethyl)pyridin-3-yl]-1H-pyrrolo[3,2-b]pyridin-2-yl}pyridin-2-yl)acetamide], the half-maximal inhibitory concentration (IC50) on HIS-TGFβR1 T204D was 0.002 µM; on HIS-TGFβR2 WT, more than 15 µM.
Regarding `CC(=O)Nc1cc(-c2[nH]c3c(CO)ccnc3c2-c2nc(C)cs2)ccn1` [Example 214, N-(4-(7-(hydroxymethyl)-3-(4-methylthiazol-2-yl)-1H-pyrrolo[3,2-b]pyridin-2-yl)pyridin-2-yl)acetamide], the IC50 on HIS-TGFβR1 T204D worked out at 0.0014 µM; on HIS-TGFβR2 WT it was 0.173 µM.
For the compound `COc1ccc(-c2c(-c3ccnc(NC(C)=O)c3)[nH]c3cc(Cl)cnc23)nc1C` [Example 170, N-(4-(6-Chloro-3-(5-methoxy-6-methylpyridin-2-yl)-1H-pyrrolo[3,2-b]pyridin-2-yl)pyridin-2-yl)acetamide], the figures for the IC50 on HIS-TGFβR1 T204D and on HIS-TGFβR2 WT were 0.032 µM and more than 15 µM, respectively.
In the case of `CC(=O)Nc1cc(-c2[nH]c3c(C#N)ccnc3c2-c2nc(C)cs2)ccn1` [Example 240, N-(4-(7-Cyano-3-(4-methylthiazol-2-yl)-1H-pyrrolo[3,2-b]pyridin-2-yl)pyridin-2-yl)acetamide], the IC50 was 0.594 µM at HIS-TGFβR1 T204D and more than 15 µM at HIS-TGFβR2 WT.
In the same order, the values of `CNCc1ccnc2c(-c3cccc(C(F)F)n3)c(-c3ccnc(NC(C)=O)c3)[nH]c12` [Example 151, N-(4-{3-[6-(Difluoromethyl)pyridin-2-yl]-7-[(methylamino)methyl]-1H-pyrrolo[3,2-b]pyridin-2-yl}pyridin-2-yl)acetamide] are 0.01 µM and more than 15 µM.
As to `COC(=O)Nc1cc(-c2[nH]c3cccnc3c2-c2ccc(OC)nc2)ccn1` [Example 84, Methyl N-{4-[3-(6-methoxypyridin-3-yl)-1H-pyrrolo[3,2-b]pyridin-2-yl]pyridin-2-yl}carbamate], the IC50 at HIS-TGFβR1 T204D came to 0.002 µM; on HIS-TGFβR2 WT it was 0.13 µM.
In the same order, the values of `COc1ccc(-c2c(-c3ccnc(NC(C)=O)c3)[nH]c3c(C)ccnc23)nc1` [Example 217, N-(4-(3-(5-Methoxypyridin-2-yl)-7-methyl-1H-pyrrolo[3,2-b]pyridin-2-yl)pyridin-2-yl)acetamide] are more than 15 µM and more than 15 µM.
With `CC(=O)Nc1cc(-c2[nH]c3cccnc3c2-c2nccc(Cl)n2)ccn1` [Example 197, N-(4-(3-(4-Chloropyrimidin-2-yl)-1H-pyrrolo[3,2-b]pyridin-2-yl)pyridin-2-yl)acetamide], the IC50 is 3.54 µM on HIS-TGFβR1 T204D and more than 15 µM at HIS-TGFβR2 WT.
As for `COc1ccc(-c2c(-c3ccnc(NC(C)=O)c3)[nH]c3cc(Cl)cnc23)cn1` [Example 43, N-{4-[6-Chloro-3-(6-methoxypyridin-3-yl)-1H-pyrrolo[3,2-b]pyridin-2-yl]pyridin-2-yl}acetamide], the IC50 at HIS-TGFβR1 T204D was determined as 0.002 µM; at HIS-TGFβR2 WT it was 0.068 µM.
For the compound `CC(=O)Nc1cc(-c2[nH]c3cc(F)cnc3c2-c2ncc(C)s2)ccn1` [Example 183, N-(4-(6-Fluoro-3-(5-methylthiazol-2-yl)-1H-pyrrolo[3,2-b]pyridin-2-yl)pyridin-2-yl)acetamide], the IC50 at HIS-TGFβR1 T204D worked out at 0.003 µM; at HIS-TGFβR2 WT, 0.407 µM.
On the same counts, the results for `COc1ccc2[nH]c(-c3ccnc(NC(C)=O)c3)c(-c3cccc(Cl)n3)c2n1` [Example 77] are 0.033 µM and more than 15 µM.
Turning to `COc1cnc2c(-c3cccc(C)n3)c(-c3ccnc(NC(=O)CN(C)C)c3)[nH]c2c1` [Example 116, 2-(Dimethylamino)-N-{4-[6-methoxy-3-(6-methylpyridin-2-yl)-1H-pyrrolo[3,2-b]pyridin-2-yl]pyridin-2-yl}acetamide], the results for the 50% inhibitory concentration (IC50) at HIS-TGFβR1 T204D and at HIS-TGFβR2 WT were 0.005 µM and 7.35 µM, respectively.
With `[2H]C([2H])([2H])C(O)c1ccnc2c(-c3cccc(C(F)F)n3)c(-c3ccnc(NC(C)=O)c3)[nH]c12` (centres unmarked) [Example 145, N-(4-{3-[6-(Difluoromethyl)pyridin-2-yl]-7-[1-hydroxy(2,2,2-2H)ethyl]-1H-pyrrolo[3,2-b]pyridin-2-yl}pyridin-2-yl)acetamide], the IC50 is 0.002 µM on HIS-TGFβR1 T204D and 2.94 µM at HIS-TGFβR2 WT.
Turning to `CC(=O)Nc1cc(-c2[nH]c3cccnc3c2-c2nc(C#N)cs2)ccn1` [Example 203, N-(4-(3-(4-Cyanothiazol-2-yl)-1H-pyrrolo[3,2-b]pyridin-2-yl)pyridin-2-yl)acetamide], the IC50 on HIS-TGFβR1 T204D is 0.774 µM; on HIS-TGFβR2 WT, more than 15 µM.
As for `CNC(=O)c1cc(Cl)nc2c(-c3ccc(OC)nc3)c(-c3ccnc(NC(C)=O)c3)[nH]c12` [Example 56, 5-Chloro-2-(2-acetamidopyridin-4-yl)-3-(6-methoxypyridin-3-yl)-N-methyl-1H-pyrrolo[3,2-b]pyridine-7-carboxamide], the IC50 on HIS-TGFβR1 T204D came to 0.017 µM; on HIS-TGFβR2 WT, 1.1 µM.
Consider `COc1ccc(-c2c(-c3ccnc(NC(C)=O)c3)[nH]c3cc(Br)cnc23)nc1` [Example 83, N-{4-[6-Bromo-3-(5-methoxypyridin-2-yl)-1H-pyrrolo[3,2-b]pyridin-2-yl]pyridin-2-yl}acetamide], for which the IC50 on HIS-TGFβR1 T204D was 0.002 µM; at HIS-TGFβR2 WT, more than 15 µM.
